Data published in patent US20240103006A1 (Roche Diagnostics Operations, Inc., priority 2021, published 2024).
Several values for one entry are separate records, joined by “and”; a condition that tells them apart may be missing. Identical values can stand only once. Marks after values point to notes of the source that are not given here.

Tests used:
[1] = UV-vis spectral properties / extinction coefficients in aqueous buffer; type: physicochemical; conditions: for ε at λmax / λmax: merocyanine dyes
Method: Absorption spectra were recorded on a Cary 50 UV-vis spectrometer from Varian. All measurements were performed in 1 cm UV-vis disposable cuvettes (BRAND semi-micro) and air-equilibrated solutions at 25±0.1° C. A total assay volume of 1.0 mL was used for each measurement. UV-vis scan spectra were recorded using following parameters: average time 0.05 s; data interval 1 nm; scan rate 1200 nm/min; with base line correction.
(§1) Stock solutions of assayed compounds (2-5 mM) were prepared in H2O-DMSO (1:1), stored at −20° C., and diluted to 1.0 mM with buffer before use. The L-Cys stock solution (20.0 mM) was freshly prepared in buffer before the measurements. […]
For a measurement, 1000 μL of buffer and 1-50 μL of probe (1.0 mM) were mixed, and then transferred to a cuvette. Absorbance spectra (250-800 nm) were measured against a blank of the buffer. At least six concentrations of each compound were used to calculate extinction coefficients from the slope of probe concentration vs absorbance plots, using MS Excel software (Microsoft).

[2] = Cys-response screening by UV-vis (cleavage of acryloyl ester by excess Cys); conditions: for ε^Cys / λ^Cys: after excess Cys (100 μM), 37° C., 15 min; for SNR: from ε^Cys and ε^blank
Method: as §1
In the same manner, ε^Cys was determined from the solutions of probe reacted with an excess of Cys (100 μM). The reactions were performed at 37° C. (incubation time 15 min). Blank reactions were run without addition of Cys.
Spectra recorded in the presence of Cys confirmed a colorimetric response through the cleavage of acryloyl ester. […] Moreover, their spectral profiles were advantageously fulfilling the wavelength requirement for the Cys sensing application in Cedex system (340, 378, 409, 480, 512, 520, 552, 583, 629, 652, 659 and 800 nm).

[3] = Evaluation of stability (hydrolysis of probe in buffer, UV-vis); type: physicochemical; conditions: 25 mM HEPES pH 7.4, 15.6 μM, 5 h, ε from merocyanine analogues (LZ07: ε from Table 2)
Method: For a measurement, 1000 μL of buffer and 16 μL of probe (1.0 mM) were mixed, and then incubated at +4° C. and at +37° C. for 5 h. The resulting mixtures were transferred to a cuvette, and the absorbance (250-800 nm) was measured. Each measurement was done in triplicate.
[…] Solutions of each probe were monitored by UV-vis for 5 h.

[4] = solvent as listed per probe; cited from earlier work
[5] = probe before addition of Cys, 25 mM HEPES pH 7.4
[6] = probe before addition of Cys, same buffer at pH 8.0

SMILES | ε at λmax ([1]; 25 mM HEPES pH 7.4, 1-24 μM) [mM⁻¹ cm⁻¹] | λmax ([1]; 25 mM HEPES pH 7.4, 1-24 μM) [nm] | ε of long-wavelength band of probe [1, 5] [mM⁻¹ cm⁻¹] | ε of short-wavelength band(s) of probe [1, 5] | λmax, long-wavelength band of probe [1, 5] [nm] | λmax, short-wavelength band(s) of probe [1, 5] | Hydrolysis @4° C. [3] [%] | Hydrolysis @37° C. [3] [%] | ε^Cys ([2]; 25 mM HEPES pH 7.4) [mM⁻¹ cm⁻¹] | λ^Cys ([2]; 25 mM HEPES pH 7.4) [nm] | SNR ([2]; 25 mM HEPES pH 7.4) | further results
C=CC(=O)Oc1ccc(/C=C/C2=[N+](CCCCS(=O)(=O)[O-])c3ccccc3C2(C)C)c2ccccc12 [MF62] |  |  | 1.5 | 8.5 mM⁻¹ cm⁻¹ and 7.7 mM⁻¹ cm⁻¹ | 582 | 419 nm and 287 nm | 7.6 ± 0.5 | 40.4 ± 0.6 | 105.3 | 582 | 20 | 
C=CC(=O)Oc1ccc(/C=C/C2=[N+](CCCCS(=O)(=O)[O-])c3ccccc3C2(C)C)c2cccnc12 [MF63] |  |  | 2.9 | 14.0 mM⁻¹ cm⁻¹ | 572 | 397 nm | 9.8 ± 1.5 | 55.3 ± 0.7 | 93.4 | 572 | 10 | 
C=CC(=O)Oc1ccc(/C=C/C2=[N+](CCCCS(=O)(=O)O)c3ccccc3C2(C)C)c(S(=O)(=O)[O-])c1 [MF64] |  |  | 0.7 | 8.0 mM⁻¹ cm⁻¹ | 514 | 350 nm | 8.9 ± 0.2 | 45.2 ± 1.4 | 32.1 | 514 | 14 | 
C=CC(=O)Oc1ccc(/C=C/C2=[N+](CCCCS(=O)(=O)O)c3ccccc3C2(C)C)cc1S(=O)(=O)[O-] [MF65] |  |  | 1.2 | 17.7 mM⁻¹ cm⁻¹ | 528 | 381 nm | 7.2 ± 0.2 | 28.9 ± 1.4 | 44.3 | 528 | 16 | 
Cc1cc(/C=C/C2=[N+](CCCS(=O)(=O)O)c3ccc(S(=O)(=O)[O-])cc3C2(C)C)cc(C)c1O [MF66] | 122.6 | 556 |  |  |  |  |  |  |  |  |  | ε at λmax ([1]; same buffer at pH 8.0): 138.6 mM⁻¹ cm⁻¹; λmax ([1]; same buffer at pH 8.0): 556 nm
Cc1cc(/C=C/C2=[N+](C)c3ccccc3C2(C)C)cc(C)c1O [MF67] | 67.4 | 546 |  |  |  |  |  |  |  |  |  | ε at λmax ([1]; same buffer at pH 8.0): 84.9 mM⁻¹ cm⁻¹; λmax ([1]; same buffer at pH 8.0): 546 nm
C=CC(=O)Oc1c(C)cc(/C=C/C2=[N+](C)c3ccccc3C2(C)C)cc1C [MF71] |  |  | 0.6 | 29.1 mM⁻¹ cm⁻¹ | 546 | 387 nm | 1.0 ± 0.1 | 2.3 ± 0.2 | 33.7 | 547 | 48 | ε of long-wavelength band of probe [1, 6]: 0.8 mM⁻¹ cm⁻¹; ε of short-wavelength band of probe [1, 6]: 25.7 mM⁻¹ cm⁻¹; λmax, long-wavelength band of probe [1, 6]: 546 nm; λmax, short-wavelength band of probe [1, 6]: 385 nm; ε^Cys ([2]; same buffer at pH 8.0): 69.6 mM⁻¹ cm⁻¹; λ^Cys ([2]; same buffer at pH 8.0): 547 nm; SNR ([2]; same buffer at pH 8.0): 53**
C=CC(=O)Oc1ccc(/C=C/C2=[N+](C)c3ccccc3C2(C)C)cc1 [drawing 16] |  |  |  |  |  |  |  |  |  |  |  | Spectra: Probe [4]: 384 nm; Spectra: With Cys [4]: 512 nm

Now from value to compound, other results behind:

ε at λmax ([1]; 25 mM HEPES pH 7.4, 1-24 μM) [mM⁻¹ cm⁻¹] | λmax ([1]; 25 mM HEPES pH 7.4, 1-24 μM) [nm] | ε of long-wavelength band of probe [1, 5] [mM⁻¹ cm⁻¹] | ε of short-wavelength band(s) of probe [1, 5] | λmax, long-wavelength band of probe [1, 5] [nm] | λmax, short-wavelength band(s) of probe [1, 5] | Hydrolysis @4° C. [3] [%] | Hydrolysis @37° C. [3] [%] | SMILES | ε^Cys ([2]; 25 mM HEPES pH 7.4) [mM⁻¹ cm⁻¹] | λ^Cys ([2]; 25 mM HEPES pH 7.4) [nm] | SNR ([2]; 25 mM HEPES pH 7.4) | further results
70.1 | 529 |  |  |  |  |  |  | COc1cc(O)ccc1/C=C/C1=[N+](CCCCS(=O)(=O)[O-])c2ccccc2C1(C)C [MF52] |  |  |  | 
65.3 | 548 |  |  |  |  |  |  | COc1cc(/C=C/C2=[N+](CCCCS(=O)(=O)[O-])c3ccccc3C2(C)C)ccc1O [MF53] |  |  |  | 
44.9 | 528 |  |  |  |  |  |  | CC1(C)C(/C=C/c2ccc(O)c(S(=O)(=O)[O-])c2)=[N+](CCCCS(=O)(=O)O)c2ccccc21 [MF54] |  |  |  | 
109.7 | 582 |  |  |  |  |  |  | CC1(C)C(/C=C/c2ccc(O)c3ccccc23)=[N+](CCCCS(=O)(=O)[O-])c2ccccc21 [MF56] |  |  |  | 
106.3 | 572 |  |  |  |  |  |  | CC1(C)C(/C=C/c2ccc(O)c3ncccc23)=[N+](CCCCS(=O)(=O)[O-])c2ccccc21 [MF57] |  |  |  | 
48.1 | 514 |  |  |  |  |  |  | CC1(C)C(/C=C/c2ccc(O)cc2S(=O)(=O)[O-])=[N+](CCCCS(=O)(=O)O)c2ccccc21 [MF58] |  |  |  | 
 |  | 2.1 | 14.3 mM⁻¹ cm⁻¹ | 530 | 409 nm | 9.8 ± 0.3 | 41.8 ± 0.9 | C=CC(=O)Oc1ccc(/C=C/C2=[N+](CCCCS(=O)(=O)[O-])c3ccccc3C2(C)C)c(OC)c1 [MF60] | 67.8 | 529 | 14 | 
 |  | 0.4 | 20.4 mM⁻¹ cm⁻¹ | 548 | 397 nm | 4.8 ± 0.1 | 29.1 ± 1.9 | C=CC(=O)Oc1ccc(/C=C/C2=[N+](CCCCS(=O)(=O)[O-])c3ccccc3C2(C)C)cc1OC [MF61] | 61.7 | 549 | 36 | 
70.0 | 575 |  |  |  |  |  |  | COc1cc(/C=C/C2=[N+](CCCCS(=O)(=O)[O-])c3ccccc3C2(C)C)cc(OC)c1O [MF68] |  |  |  | 
